Values quoted from earlier work as cited in patent US8227599B2, “Adsorbents comprising anthraquinone dye-ligends for the separation of biological materials” (BASF SE, priority 2005, dated 2012).

System: Aspergillus terreus NADP-glutamate Dehydrogenase

Nc1c(S(=O)(=O)[O-])cc(Nc2ccc(Nc3nc(Cl)nc(Nc4ccccc4S(=O)(=O)[O-])n3)c(S(=O)(=O)[O-])c2)c2c1C(=O)c1ccccc1C2=O.[Na+].[Na+].[Na+] [Cibacron Blue 3GA]
Binding of NADP-GDH to the dye: does not bind
